Laboratory results taken from patent publication US20260102472A1, “SEMAGLUTIDE IN MEDICAL THERAPY” (Novo Nordisk A/S, priority 2023, published 2026).

Test system: human subjects with obesity-related heart failure with preserved ejection fraction, and type 2 diabetes
Test: Randomised, double-blind, placebo-controlled clinical trial of semaglutide in obesity-related HFpEF and type 2 diabetes (Example 2)
Type: in vivo
Settings: for Time to first HF event from randomisation leading to either hospitalisation or an urgent visit, Hazard ratio: Semaglutide 2.4 mg/placebo
Excerpt: The Kansas City Cardiomyopathy Questionnaire (KCCQ) is a disease-specific health status instrument composed of 23 items that quantify the domains of physical limitation, symptoms, self-efficacy, social limitation, and health-related quality of life limitation from heart failure (available via cvoutcomes.org). The questions of the KCCQ are as published in the appendix of Green et al., JACC 2000; 35 (5): 1245-55:
The Kansas City Cardiomyopathy Questionnaire clinical summary score (KCCQ-CSS) is used for interpretation of the KCCQ and scores range from 0 to 100 where higher scores indicate better function. KCCQ-CSS is calculated as the mean of the available summary scores Physical Limitation Score and Total Symptom Score from the KCCQ. […] “Total Symptom Score” is calculated as the mean of the available summary scores Symptom Frequency Score and Symptom Burden Score. “Symptom Frequency Score” is calculated, if answer to at least two of Questions 3, 5, 7 and 9 are not missing, as 100*(mean of S3, S5, S7 and S9 answered), where S3=[(Question 3)−1]/4, S5=[(Question 5)−1]/6, S7=[(Question 7)−1]/6, and S9=[(Question 9)−1]/4; answers to Question 3 are scored as follows: Every morning=1, 3 or more times a week but not every day=2, 1-2 times a week=3, Less than once a week=4, Never over the past 2 weeks=5; answers to Questions 5 and 7 are scored as follows: All of the time=1, Several times a day=2, At least once a day=3, 3 or more times a week but not every day=4, 1-2 times a week=5, Less than once a week=6, or Never over the past 2 weeks=7; and answers to Question 9 are scored as follows: Every night=1, 3 or more times a week but not every day=2, 1-2 times a week=3, Less than once a week=4, or Never over the past 2 weeks=5. “Symptom Burden Score” is calculated, if answer to at least one of Questions 4, 6 and 8 is not missing, as 100*[(mean of Questions 4, 6 and 8 answered)−1]/4 where answers are scored as follows: Extremely bothersome=1, Quite a bit bothersome=2, Moderately bothersome=3, Slightly bothersome=4, Not at all bothersome=5, or I've had no swelling/fatigue/shortness of breath=5. The term “mean of questions answered” as used herein refers to that for a scale with n in questions where the subject must answer m to score the scale, but the subject answers only n-i, where n-i>=m, then the mean of those questions is calculated as (sum of answers to those n-i questions)/(n-i).
The six minute walk test (6MWT) is a determination of the distance a subject is able to walk over a period of six minutes where the subject traverses, at its own pace and resting as needed, back and forth along a marked walkway of 20 meters with the goal of walking as far as possible without running. The distance obtained from 6MWT is referred to as the six minute walk distance (6MWD). The 6MWT is a direct and timed measure of walking ability, which is technically simple and reproducible.
Heart failure exists in different degrees of severity. The most commonly used classification system of heart failure is the New York Heart Association Functional Classification (also referred to as “NYHA”). NYHA categorises subjects in one of four classes I-IV (Table A), based on their degree of limitation during physical activity, and optionally an additional subgroup A-D based on objective assessments, for further details see The Criteria Committee of the New York Heart Association. Nomenclature and Criteria for Diagnosis of Diseases of the Heart and Great Vessels. 9th ed. Boston, Mass: Little, Brown & Co; 1994:253-256.
A randomised, double-blind, international multicentre, placebo-controlled clinical trial with semaglutide was carried out with 616 human subjects with obesity-related heart failure with preserved ejection fraction, and type 2 diabetes. […]

[1] = pair-wise comparisons vs. placebo, 2.4 mg, type 2 diabetes
[2] = week 0, 2.4 mg once weekly, type 2 diabetes
[3] = week 20, 2.4 mg once weekly, type 2 diabetes
[4] = week 36, 2.4 mg once weekly, type 2 diabetes
[5] = week 52, 2.4 mg once weekly vs. placebo, type 2 diabetes
[6] = week 52, 2.4 mg once weekly vs. placebo, type 2 diabetes, listed as semaglutide
[7] = week 52, 2.4 mg once weekly, type 2 diabetes
[8] = week 52, 2.4 mg once weekly, type 2 diabetes, ANCOVA estimate

Substance: N-epsilon26-[2-(2-{2-[2-(2-{2-[(S)-4-Carboxy-4-(17-carboxyheptadecanoyl-amino) butyrylamino]ethoxy}ethoxy) acetylamino]ethoxy}ethoxy) acetyl] [Aib8,Arg34] GLP-1-(7-37) [Semaglutide]
- Inflammation (HFpEF, obesity and type 2 diabetes, no data given): reduced inflammation
- Time to first HF event from randomisation leading to either hospitalisation or an urgent visit, Hazard ratio (type 2 diabetes): 0.40
- Time to first HF event from randomisation leading to either hospitalisation or an urgent visit, Hazard ratio (type 2 diabetes, listed as semaglutide): risk of experiencing a heart failure event was less
- Patients improved or with no change in NYHA class compared with placebo (baseline to 52 weeks, type 2 diabetes): more patients treated with semaglutide improved or observed no change in NYHA class
- More wins on semaglutide as compared to placebo (hierarchical composite endpoint, type 2 diabetes): 59%
- Hierarchical composite endpoint, Loss: All-cause death [1]: 1.9%
- Hierarchical composite endpoint, Loss: Change in 6MWD ≥30 meters difference [1]: 4.1%
- Hierarchical composite endpoint, Loss: Change in KCCQ-CSS ≥5 points difference [1]: 6.2%
- Hierarchical composite endpoint, Loss: Change in KCCQ-CSS ≥10 points difference [1]: 5.0%
- Hierarchical composite endpoint, Loss: Change in KCCQ-CSS ≥15 points difference [1]: 18.2%
- Hierarchical composite endpoint, Loss: Number of HF events [1]: 1.2%
- Hierarchical composite endpoint, Loss: Time-to-first HF event [1]: 0.0%
- Hierarchical composite endpoint, Loss: Total [1]: 36.8%
- Hierarchical composite endpoint, Proportion of ties [1]: Proportion of ties: 4.5%
- Hierarchical composite endpoint, Wins: All-cause death [1]: 2.9%
- Hierarchical composite endpoint, Wins: Change in 6MWD ≥30 meters difference [1]: 4.9%
- Hierarchical composite endpoint, Wins: Change in KCCQ-CSS ≥5 points difference [1]: 7.3%
- Hierarchical composite endpoint, Wins: Change in KCCQ-CSS ≥10 points difference [1]: 6.6%
- Hierarchical composite endpoint, Wins: Change in KCCQ-CSS ≥15 points difference [1]: 32.3%
- Hierarchical composite endpoint, Wins: Number of HF events [1]: 4.7%
- Hierarchical composite endpoint, Wins: Time-to-first HF event [1]: 0.0%
- Hierarchical composite endpoint, Wins: Total [1]: 58.7%
- Observed KCCQ-CSS mean change from baseline [2]: 0
- Observed body weight (%) mean change from baseline [2]: 0%
- Observed six minutes walk distance mean change from baseline [2]: 0 meters
- Observed body weight (%) mean change from baseline (week 4, dose escalation to 2.4 mg once weekly, type 2 diabetes): −1.8%
- Observed body weight (%) mean change from baseline (week 8, dose escalation to 2.4 mg once weekly, type 2 diabetes): −3.1%
- Observed body weight (%) mean change from baseline (week 12, dose escalation to 2.4 mg once weekly, type 2 diabetes): −4.5%
- Observed body weight (%) mean change from baseline (week 16, dose escalation to 2.4 mg once weekly, type 2 diabetes): −5.8%
- Observed KCCQ-CSS mean change from baseline [3]: 11.1
- Observed body weight (%) mean change from baseline [3]: −6.6%
- Observed six minutes walk distance mean change from baseline [3]: 23.0 meters
- Observed body weight (%) mean change from baseline (week 28, 2.4 mg once weekly, type 2 diabetes): −8.0%
- Observed KCCQ-CSS mean change from baseline [4]: 14.2
- Observed body weight (%) mean change from baseline [4]: −9.1%
- Observed body weight (%) mean change from baseline (week 44, 2.4 mg once weekly, type 2 diabetes): −9.8%
- Body weight (%) change from baseline to week 52, Treatment difference vs. placebo [5]: −6.4%
- Improvement of ≥5 points in KCCQ-CSS, Treatment Odds ratio vs. placebo [5]: 2.29
- Improvement of ≥10 points in KCCQ-CSS, Treatment Odds ratio vs. placebo [5]: 2.06
- KCCQ-CSS change from baseline to week 52, Treatment difference vs. placebo [5]: 7.3 score
- Six minutes walk distance change from baseline to week 52, Treatment difference vs. placebo [5]: 14.3 meters
- Body weight (%) change from baseline to week 52, Treatment difference vs. placebo [6]: significantly larger body weight loss
- KCCQ-CSS change from baseline to week 52, Treatment difference vs. placebo [6]: significantly larger improvement in KCCQ-CSS
- Six minutes walk distance change from baseline to week 52, Treatment difference vs. placebo [6]: significantly larger improvement in six minutes walk distance
- NYHA class from baseline to week 52: Improvement [7]: 33.9%
- NYHA class from baseline to week 52: No change [7]: 63.7%
- NYHA class from baseline to week 52: Worsening [7]: 2.4%
- Observed KCCQ-CSS mean change from baseline [7]: 14.4
- Observed body weight (%) mean change from baseline [7]: −10.2%
- Observed proportion improving ≥5 points from baseline in KCCQ-CSS [7]: 73%
- Observed proportion improving ≥10 points from baseline in KCCQ-CSS [7]: 58%
- Observed six minutes walk distance mean change from baseline [7]: 18.6 meters
- Body weight (%) change from baseline to week 52, Estimate [8]: −9.8%
- KCCQ-CSS change from baseline to week 52, Estimate [8]: 13.7 score
- Six minutes walk distance change from baseline to week 52, Estimate [8]: 12.7 meters
